Data: patent US20070027150A1 (priority 2005, published 2007)

The compounds below were run against His-tagged N-terminal ATP binding domain (amino acid residues 9-236) of HSP90α (Homo sapiens, UniProt P07900) (assay: HSP90 inhibitor binding potency: TRF competition binding assay). Settings: Table II; read-out: Hsp90 IC50 Range.
Summary of the method: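 Competition against biotinylated radicicol for binding to the His-tagged 9-236 ATP domain of HSP90α: 2 h, room temperature, HEPES/MgCl2/KCl/BSA buffer. Streptavidin capture, then europium-labeled anti-His antibody and enhancement solution; europium counts give IC50.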

Row | SMILES | IC50
1 | Cc1nc(N)nc2c1C(=O)CC(c1cc(F)ccc1-c1cncnc1)C2 (stereo not drawn) [Compound 284, 2-amino-7-(5-fluoro-2-pyrimidin-5-yl-phenyl)-4-methyl-7,8-dihydro-6H-quinazolin-5-one] | > 10000 nM
2 | COc1ncccc1-c1ccc(F)cc1C1CC(=O)c2c(C)nc(N)nc2C1 (stereo not drawn) [Compound 285, 2-amino-7-[5-fluoro-2-(2-methoxy-pyridin-3-yl)-phenyl]-4-methyl-7,8-dihydro-6H-quinazolin-5-one] | < 1000 nM
3 | COc1cncc(-c2ccc(F)cc2C2CC(=O)c3c(C)nc(N)nc3C2)n1 (stereo not drawn) [Compound 286, 2-amino-7-[5-fluoro-2-(6-methoxy-pyrazin-2-yl)-phenyl]-4-methyl-7,8-dihydro-6H-quinazolin-5-one] | 1000 to 10000 nM
4 | COc1nc(-c2cc(F)ccc2[C@@H]2CC(=O)c3c(C)nc(N)nc3C2)cnc1N [Compound 287, (S)-2-amino-7-[2-(5-amino-6-methoxy-pyrazin-2-yl)-4-fluoro-phenyl]-4-methyl-7,8-dihydro-6H-quinazolin-5-one] | < 1000 nM
5 | COc1cnc(-c2cc(F)ccc2[C@@H]2CC(=O)c3c(C)nc(N)nc3C2)nc1OC [Compound 288, (S)-2-amino-7-[2-(4,5-dimethoxy-pyrimidin-2-yl)-4-fluoro-phenyl]-4-methyl-7,8-dihydro-6H-quinazolin-5-one] | < 1000 nM
6 | COc1ccc(F)c(-c2scnc2C2CC(=O)c3c(C)nc(N)nc3C2)c1 (stereo not drawn) [Compound 289, 2-amino-7-[5-(2-fluoro-5-methoxy-phenyl)-thiazol-4-yl]-4-methyl-7,8-dihydro-6H-quinazolin-5-one] | 1000 to 10000 nM
7 | COc1ccccc1Oc1cc(F)ccc1C1CC(=O)c2c(C)nc(N)nc2C1 (stereo not drawn) [Compound 290, 2-amino-7-[4-fluoro-2-(2-methoxy-phenoxy)-phenyl]-4-methyl-7,8-dihydro-6H-quinazolin-5-one] | 1000 to 10000 nM
8 | COc1cccc(-c2scnc2C2CC(=O)c3c(C)nc(N)nc3C2)n1 (stereo not drawn) [Compound 291, 2-amino-7-[5-(6-methoxy-pyridin-2-yl)-thiazol-4-yl]-4-methyl-7,8-dihydro-6H-quinazolin-5-one] | < 1000 nM
9 | Cc1nc(N)nc2c1C(=O)CC(c1ncsc1-c1cc(F)ccc1F)C2 (stereo not drawn) [Compound 292, 2-amino-7-[5-(2,5-difluoro-phenyl)-thiazol-4-yl]-4-methyl-7,8-dihydro-6H-quinazolin-5-one] | < 1000 nM
10 | Cc1ccc(F)c(-c2scnc2C2CC(=O)c3c(C)nc(N)nc3C2)c1 (stereo not drawn) [Compound 293, 2-amino-7-[5-(2-fluoro-5-methyl-phenyl)-thiazol-4-yl]-4-methyl-7,8-dihydro-6H-quinazolin-5-one] | < 1000 nM
11 | Cc1nc(N)nc2c1C(=O)CC(c1ncsc1-c1cccc(F)n1)C2 (stereo not drawn) [Compound 294, 2-amino-7-[5-(6-fluoro-pyridin-2-yl)-thiazol-4-yl]-4-methyl-7,8-dihydro-6H-quinazolin-5-one] | < 1000 nM
12 | CNc1cccc(-c2cc(F)ccc2C2CC(=O)c3c(C)nc(N)nc3C2)n1 (stereo not drawn) [Compound 295, 2-amino-7-[4-fluoro-2-(6-methylamino-pyridin-2-yl)-phenyl]-4-methyl-7,8-dihydro-6H-quinazolin-5-one] | 1000 to 10000 nM
13 | CNc1cncc(-c2cc(F)ccc2C2CC(=O)c3c(C)nc(N)nc3C2)n1 (stereo not drawn) [Compound 296, 2-amino-7-[4-fluoro-2-(6-methylamino-pyrazin-2-yl)-phenyl]-4-methyl-7,8-dihydro-6H-quinazolin-5-one] | < 1000 nM
14 | COc1cccc(-c2scnc2[C@H]2CC(=O)c3c(C)nc(N)nc3C2)n1 [Compound 297, (R)-2-amino-7-[5-(6-methoxy-pyridin-2-yl)-thiazol-4-yl]-4-methyl-7,8-dihydro-6H-quinazolin-5-one] | 1000 to 10000 nM
15 | COc1cccc(-c2scnc2[C@@H]2CC(=O)c3c(C)nc(N)nc3C2)n1 [Compound 298, (S)-2-amino-7-[5-(6-methoxy-pyridin-2-yl)-thiazol-4-yl]-4-methyl-7,8-dihydro-6H-quinazolin-5-one] | < 1000 nM
16 | COc1nc(-c2cc(F)ccc2[C@H]2CC(=O)c3c(C)nc(N)nc3C2)ncc1Cl [Compound 299, (R)-2-amino-7-[2-(5-chloro-4-methoxy-pyrimidin-2-yl)-4-fluoro-phenyl]-4-methyl-7,8-dihydro-6H-quinazolin-5-one] | < 1000 nM
17 | COc1nc(-c2cc(F)ccc2[C@@H]2CC(=O)c3c(C)nc(N)nc3C2)ncc1Cl [Compound 300, (S)-2-amino-7-[2-(5-chloro-4-methoxy-pyrimidin-2-yl)-4-fluoro-phenyl]-4-methyl-7,8-dihydro-6H-quinazolin-5-one] | < 1000 nM
18 | COc1ccccc1-c1scnc1C1CC(=O)c2c(C)nc(N)nc2C1 (stereo not drawn) [Compound 301, 2-amino-7-[5-(2-methoxy-phenyl)-thiazol-4-yl]-4-methyl-7,8-dihydro-6H-quinazolin-5-one] | < 1000 nM
19 | Cc1nc(N)nc2c1C(=O)CC(c1ncsc1-c1ccccc1F)C2 (stereo not drawn) [Compound 302, 2-amino-7-[5-(2-fluoro-phenyl)-thiazol-4-yl]-4-methyl-7,8-dihydro-6H-quinazolin-5-one] | < 1000 nM
20 | COc1cncc(-c2scnc2C2CC(=O)c3c(C)nc(N)nc3C2)n1 (stereo not drawn) [Compound 303, 2-amino-7-[5-(6-methoxy-pyrazin-2-yl)-thiazol-4-yl]-4-methyl-7,8-dihydro-6H-quinazolin-5-one] | < 1000 nM

Row | SMILES | IC50
21 | COc1ccc(Cc2nc(N)nc3c2C(=O)CC(c2ccccc2)C3)cc1 (stereo not drawn) [Compound 304, 2-amino-4-(4-methoxy-benzyl)-7-phenyl-7,8-dihydro-6H-quinazolin-5-one] | 1000 to 10000 nM
22 | Nc1nc(CCc2ccccc2)c2c(n1)CC(c1ccccc1)CC2=O (stereo not drawn) [Compound 305, 2-amino-4-phenethyl-7-phenyl-7,8-dihydro-6H-quinazolin-5-one] | > 10000 nM
23 | COc1cccc(Cc2nc(N)nc3c2C(=O)CC(c2ccccc2)C3)c1 (stereo not drawn) [Compound 306, 2-amino-4-(3-methoxy-benzyl)-7-phenyl-7,8-dihydro-6H-quinazolin-5-one] | 1000 to 10000 nM
24 | Nc1nc(Cc2ccc(F)cc2)c2c(n1)CC(c1ccccc1)CC2=O (stereo not drawn) [Compound 307, 2-amino-4-(4-fluoro-benzyl)-7-phenyl-7,8-dihydro-6H-quinazolin-5-one] | 1000 to 10000 nM
25 | Nc1nc(Cc2cccc([N+](=O)[O-])c2)c2c(n1)CC(c1ccccc1)CC2=O (stereo not drawn) [Compound 308, 2-amino-4-(3-nitro-benzyl)-7-phenyl-7,8-dihydro-6H-quinazolin-5-one] | > 10000 nM
26 | Nc1cccc(Cc2nc(N)nc3c2C(=O)CC(c2ccccc2)C3)c1 (stereo not drawn) [Compound 309, 2-amino-4-(3-amino-benzyl)-7-phenyl-7,8-dihydro-6H-quinazolin-5-one] | > 10000 nM
27 | CC(=O)Nc1cccc(Cc2nc(N)nc3c2C(=O)CC(c2ccccc2)C3)c1 (stereo not drawn) [Compound 310, N-[3-(2-amino-5-oxo-7-phenyl-5,6,7,8-tetrahydro-quinazolin-4-ylmethyl)-phenyl]-acetamide] | > 10000 nM
28 | Nc1nc(O)c2c(n1)CC(c1ccccc1)CC2=O (stereo not drawn) [Compound 311, 2-amino-4-hydroxy-7-phenyl-7,8-dihydro-6H-quinazolin-5-one] | > 10000 nM
29 | COc1ccc(F)c(-c2cc(F)ccc2[C@@H]2CC(=O)c3c(C)nc(N)nc3C2)n1 [Compound 313, (S)-2-amino-7-[4-fluoro-2-(3-fluoro-6-methoxy-pyridin-2-yl)-phenyl]-4-methyl-7,8-dihydro-6H-quinazolin-5-one] | < 1000 nM
30 | COc1ccc(F)c(-c2cc(F)ccc2[C@H]2CC(=O)c3c(C)nc(N)nc3C2)n1 [Compound 314, (R)-2-amino-7-[4-fluoro-2-(3-fluoro-6-methoxy-pyridin-2-yl)-phenyl]-4-methyl-7,8-dihydro-6H-quinazolin-5-one] | 1000 to 10000 nM
31 | CCc1nc(N)nc2c1C(=O)CC(c1ccc(F)cc1Br)C2 (stereo not drawn) [Compound 315, 2-amino-7-(2-bromo-4-fluoro-phenyl)-4-ethyl-7,8-dihydro-6H-quinazolin-5-one] | > 10000 nM
32 | CCc1nc(N)nc2c1C(=O)CC(c1ccc(F)cc1-c1cccc(OC)n1)C2 (stereo not drawn) [Compound 316, 2-amino-4-ethyl-7-[4-fluoro-2-(6-methoxy-pyridin-2-yl)-phenyl]-7,8-dihydro-6H-quinazolin-5-one] | < 1000 nM
33 | CCc1nc(N)nc2c1C(=O)CC(c1ccc(F)cc1-c1cccnc1OC)C2 (stereo not drawn) [Compound 317, 2-amino-4-ethyl-7-[4-fluoro-2-(2-methoxy-pyridin-3-yl)-phenyl]-7,8-dihydro-6H-quinazolin-5-one] | 1000 to 10000 nM
34 | CCc1nc(N)nc2c1C(=O)CC(c1ccc(F)cc1-c1cccnc1)C2 (stereo not drawn) [Compound 318, 2-amino-4-ethyl-7-(4-fluoro-2-pyridin-3-yl-phenyl)-7,8-dihydro-6H-quinazolin-5-one] | < 1000 nM
35 | CCc1nc(N)nc2c1C(=O)CC(c1ccc(F)cc1-c1cccnc1F)C2 (stereo not drawn) [Compound 319, 2-amino-4-ethyl-7-[4-fluoro-2-(2-fluoro-pyridin-3-yl)-phenyl]-7,8-dihydro-6H-quinazolin-5-one] | 1000 to 10000 nM
36 | CCc1nc(N)nc2c1C(=O)CC(c1ccc(F)cc1-c1cccc(OC)c1F)C2 (stereo not drawn) [Compound 320, 2-amino-7-(5,2′-difluoro-3′-methoxy-biphenyl-2-yl)-4-ethyl-7,8-dihydro-6H-quinazolin-5-one] | > 10000 nM
37 | CCc1nc(N)nc2c1C(=O)CC(c1ccc(F)cc1-c1ccccc1OC)C2 (stereo not drawn) [Compound 321, 2-amino-4-ethyl-7-(5-fluoro-2′-methoxy-biphenyl-2-yl)-7,8-dihydro-6H-quinazolin-5-one] | 1000 to 10000 nM
38 | COc1ncc(-c2cc(F)ccc2C2CC(=O)c3c(C)nc(N)nc3C2)nc1OC (stereo not drawn) [Compound 322, 2-amino-7-[2-(5,6-dimethoxy-pyrazin-2-yl)-4-fluoro-phenyl]-4-methyl-7,8-dihydro-6H-quinazolin-5-one] | < 1000 nM
39 | COc1ncc(-c2cc(F)ccc2[C@@H]2CC(=O)c3c(C)nc(N)nc3C2)nc1OC [Compound 323, (S)-2-amino-7-[2-(5,6-dimethoxy-pyrazin-2-yl)-4-fluoro-phenyl]-4-methyl-7,8-dihydro-6H-quinazolin-5-one] | < 1000 nM
